Reference: US4874698A, “Process for producing tryptophan” (Kyowa Hakko Kogyo Co., Ltd., priority 1983, dated 1989)
pIC50: −log10 of the molar value.

Tests used:
[1] = target: anthranilic acid synthetase encoded by pTrp 13-2 (Corynebacterium glutamicum, UniProt P06557); assay: Inhibition by tryptophan of the anthranilic acid synthetase encoded by plasmid pTrp 13-2; type: biochemical
Method: (§1) The thus obtained transformants have the plasmid harboring a gene coding for the anthranilic acid synthetase insensitie to tryptophan. The anthranilic acid synthetase encoded by one of the plasmids, pTrp 13-2 was inhibited 50% with 0.25 mM tryptophan, which was 40-fold higher than the concentration of tryptophan (0.006 mM) needed to inhibit 50% the anthranilic acid synthetase encoded by pTrp 9-1.

[2] = target: T1, anthranilic acid synthetase encoded by pTrp 9-1 (Corynebacterium glutamicum, UniProt P06557); assay: Inhibition by tryptophan of the anthranilic acid synthetase encoded by plasmid pTrp 9-1; type: biochemical, Corynebacterium glutamicum ATCC 13032
T1 construct: made in house; host or cells: Corynebacterium glutamicum LA 105
Method: as §1

Sequence of anthranilic acid synthetase encoded by pTrp 13-2 (P06557 whole entry): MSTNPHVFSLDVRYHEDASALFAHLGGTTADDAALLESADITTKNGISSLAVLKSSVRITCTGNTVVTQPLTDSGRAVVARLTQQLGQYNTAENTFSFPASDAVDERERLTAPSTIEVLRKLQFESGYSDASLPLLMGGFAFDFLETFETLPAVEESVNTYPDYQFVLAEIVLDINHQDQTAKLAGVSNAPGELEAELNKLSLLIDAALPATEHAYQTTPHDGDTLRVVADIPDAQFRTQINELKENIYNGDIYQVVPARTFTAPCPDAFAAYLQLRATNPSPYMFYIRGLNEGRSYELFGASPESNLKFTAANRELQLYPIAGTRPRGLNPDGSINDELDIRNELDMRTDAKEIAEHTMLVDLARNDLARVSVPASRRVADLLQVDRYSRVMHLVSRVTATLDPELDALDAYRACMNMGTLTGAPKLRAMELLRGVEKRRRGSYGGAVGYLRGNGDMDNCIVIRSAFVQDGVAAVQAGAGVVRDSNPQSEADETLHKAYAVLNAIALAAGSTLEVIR
Sequence of anthranilic acid synthetase encoded by pTrp 13-2 (P06558 whole entry, further chain): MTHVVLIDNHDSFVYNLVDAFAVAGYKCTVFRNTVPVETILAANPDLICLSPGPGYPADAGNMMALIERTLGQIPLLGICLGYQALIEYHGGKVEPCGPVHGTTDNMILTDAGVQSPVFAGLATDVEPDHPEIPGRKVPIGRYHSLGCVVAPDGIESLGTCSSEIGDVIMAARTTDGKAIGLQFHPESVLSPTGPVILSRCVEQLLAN
T1 sequence (P06557 whole entry): as the sequence (P06557 whole entry) above
T1 sequence (P06558 whole entry, further chain): as the sequence (P06558 whole entry, further chain) above

N[C@@H](Cc1c[nH]c2ccccc12)C(=O)O [tryptophan]
fold higher 50% inhibitory tryptophan concentration, pTrp 13-2 enzyme versus pTrp 9-1 enzyme ([1]; 0.25 mM versus 0.006 mM): 40 fold | pIC50 ([1]; read-out: concentration of tryptophan inhibiting the anthranilic acid synthetase 50%, enzyme encoded by tryptophan-analog resistant plasmid pTrp 13-2): 3.60 | pIC50 [2]: 5.22
